Where a name gives a salt, the structure may show the parent alone.

The values that follow come from US5317021A, “3-mercapto-glutamic acid derivatives” (ONO Pharmaceutical Co., Ltd., priority 1988, dated 1994).

Data set [1] deals with bradykinin-induced biting-like response. As to the kind of experiment: Inhibitory effect on bradykinin-induced biting-like response. It counts as in vivo, male Spraque-Dawley rats. The settings on record: for Number of rats which did not show the biting-like response, 30 minutes after p.o. / Number of rats which did not show the biting-like response, 60 minutes after p.o. / Number of rats which did not show the biting-like response, 90 minutes after p.o. / Number of rats which did not show the biting-like response, 120 minutes after p.o.: 100 mg/kg p.o., number of rats 8; for Number of rats which did not show the biting-like response, 10 minutes after i.p. / Number of rats which did not show the biting-like response, 40 minutes after i.p. / Number of rats which did not show the biting-like response, 70 minutes after i.p. / Number of rats which did not show the biting-like response, 100 minutes after i.p.: 10 mg/kg i.p., number of rats 5 (Example 1), 8 (Example 12(5)). As to the method: The experiment was carried out according to the method as described in Journal of Pharmacological Methods, Z, 271 (1982). That is, male Spraque-Dawley rats (weighing 200~300 g) were used. Implantation of the bradykinin (0.63~1.25 μg in 0.5~1.0 μl of distilled water) - filled cannula onto the tooth pulp and the fixation of it on the lower incisor surfaces were carried out under ethyl ether anesthesia. A micro-application of bradykinin onto the tooth pulp produced biting-like response and some other aversive behaviors such as jumping, struggling, rubbing, scratching, escape, head-jerk and body-jerk within 1 minute.
The test compounds suspended in 0.5% carboxymethyl cellulose solution were administered either intraperitoneally or orally. After regular intervals bradykinin was administered.

The next data set addresses T1, enkephalinase (Mus musculus, UniProt Q61391).
T1 construct: striata obtained from ddY male mice; from tissue; host or cells: striata of ddY male mice (washed 20000 g membrane pellet, not purified)
T1 sequence (Q61391 1-750): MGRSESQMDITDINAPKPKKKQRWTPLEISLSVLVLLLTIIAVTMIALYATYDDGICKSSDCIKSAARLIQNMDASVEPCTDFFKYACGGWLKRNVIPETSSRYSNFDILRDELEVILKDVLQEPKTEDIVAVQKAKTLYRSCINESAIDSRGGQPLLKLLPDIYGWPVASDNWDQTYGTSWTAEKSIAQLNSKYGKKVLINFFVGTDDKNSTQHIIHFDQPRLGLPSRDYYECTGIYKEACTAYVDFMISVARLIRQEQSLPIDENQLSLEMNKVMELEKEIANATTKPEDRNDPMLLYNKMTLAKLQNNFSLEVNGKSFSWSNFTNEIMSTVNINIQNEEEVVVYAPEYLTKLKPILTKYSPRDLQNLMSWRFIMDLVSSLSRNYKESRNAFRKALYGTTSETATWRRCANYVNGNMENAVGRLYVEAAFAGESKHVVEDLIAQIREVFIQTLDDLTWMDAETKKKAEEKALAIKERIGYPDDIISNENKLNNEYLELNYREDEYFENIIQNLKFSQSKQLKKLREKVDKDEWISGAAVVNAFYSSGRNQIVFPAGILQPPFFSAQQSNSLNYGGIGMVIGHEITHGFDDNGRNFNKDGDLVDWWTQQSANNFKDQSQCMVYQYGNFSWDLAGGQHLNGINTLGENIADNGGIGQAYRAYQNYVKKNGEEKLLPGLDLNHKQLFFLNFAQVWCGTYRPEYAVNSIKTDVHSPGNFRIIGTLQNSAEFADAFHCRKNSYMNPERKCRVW
Description: Inhibitory effect on enkephalinase. Type of data set: biochemical, ddY male mice. As to conditions: substrate Suc-Ala-Ala-Phe-AMC 10^-4 M, 37° C., 60 minutes, mouse striata enzyme. The method, then: That is, to striata obtained from ddY male mice (weighing 28~30 g), Tris hydrochloric acid buffer solution (referred to "Tris buffer" hereafter) was added. The mixture was homogenised and centrifuged (1000 g×5 minites). The supernatant obtained was further centrifuged (20000 g×1 minutes). The resulting pellet was washed with cold Tris buffer and resuspended in a fresh Tris buffer to use as enzyme source of enkephalinase.
Incubation at 37° C. for 60 minutes was started by adding thereto […] of enzyme solution (×30 dilution of the above enzyme source) and 50 μl of a substrate solution containing succinyl-alanyl-alanyl-phenylalanyl (7-amido-4-methyl)coumarin (i.e. Suc-Ala-Ala-Phe-AMC, final concentration: 10^-4 M) dissolved in 50 mM HEPES/NaOH buffer (pH 7.4). The reaction was stopped by the addition of thiorphan (10^-6 M) and by heating the samples at 95° C. for 15 minutes. […] Blanks values were obtained by the same procedure as above described by using thiorphan (10^-6 M) instead of the test compound.

Data set [2] is described as follows: acute toxicity (LD50), intraperitoneal injection in mice. As to conditions: mouse, in vivo, ip.

Turning to `O=C(O)CC[C@H](NC(=O)[C@@H](CSC(=O)C(c1ccccc1)c1ccccc1)Cc1ccccc1)C(=O)Nc1ccccc1` [13(5), N-(3-diphenylacetylthio-2S-benzylpropionyl)-α-anilino-L-glutamic acid], in data set [1], the “Number of rats which did not show the biting-like response, 30 minutes after p.o.” value amounted to 1; the “Number of rats which did not show the biting-like response, 60 minutes after p.o.” value amounted to 7; the “Number of rats which did not show the biting-like response, 90 minutes after p.o.” value is 1; the “Number of rats which did not show the biting-like response, 120 minutes after p.o.” value was 1.
By IC50 is commonly meant the concentration that gives 50% inhibition. The compound `O=C(C[C@H](NC(=O)C(CS)Cc1ccccc1)C(=O)O)Nc1ccc(C(F)(F)F)cc1` (stereo partly drawn) [12(8), N-(3-mercapto-2RS-benzylpropionyl)-β-(4-trifluoromethylanilino)-L-aspartic acid] showed a concentration for half-maximal inhibition (IC50) against enkephalinase of 21 nM.
The same measure, in the same setting: for `O=C(O)CC[C@H](NC(=O)C(CS)Cc1ccccc1)C(=O)Nc1nc2ccccc2s1` (stereo partly drawn) [2(10), N-(3-mercapto-2RS-benzylpropionyl)-L-glutamic acid α-(2-benzthiazolyl) amide] the value was 44 nM; for `O=C(O)CC[C@H](NC(=O)C(CS)Cc1ccccc1)C(=O)Nc1cnccn1` (stereo partly drawn) [3(9), N-(3-mercapto-2RS-benzylpropionyl)-L-glutamic acid α-(pyrazin-2-yl) amide], 190 nM; for `CN(C)c1ccc(NC(=O)C[C@H](NC(=O)C(CS)Cc2ccccc2)C(=O)O)cc1` (stereo partly drawn) [12(7), N-(3-mercapto-2RS-benzylpropionyl)-β-[4-(N,N-dimethylamino)anilino]-L-aspartic acid], 24 nM.
In the case of `O=C(C[C@H](NC(=O)C(CS)Cc1ccccc1)C(=O)O)Nc1ccccc1` (stereo partly drawn) [Example 12, N-(3-mercapto-2RS-benzylpropionyl)-β-anilino-L-aspartic acid and the corresponding α-sodium salt], the IC50 on enkephalinase amounted to 13 nM.
`NS(=O)(=O)c1ccc(NC(=O)[C@H](CCC(=O)O)NC(=O)C(CS)Cc2ccccc2)cc1` (stereo partly drawn) [3(8), N-(3-mercapto-2RS-benzylpropionyl)-α-(4-sulfamoylanilino)-L-glutamic acid] came in with an IC50 against enkephalinase of 23 nM.
As for `O=C(O)CC[C@H](NC(=O)C(CS)CC1CCCCC1)C(=O)Nc1ccccc1` (stereo partly drawn) [1(1), N-(3-mercapto-2RS-cyclohexylmethyl-propionyl)-α-anilino-L-glutamic acid], at enkephalinase, half-maximal inhibition (IC50) was put at 400 nM.
`COc1ccc(NC(=O)[C@H](CC(=O)O)NC(=O)C(CS)Cc2ccccc2)cc1` (single isomer, unassigned) [8(4), N-(3-mercapto-2RS-benzylpropionyl)-α-(4-methoxyanilino)-L-aspartic acid] returned an IC50 against enkephalinase of 50 nM.
Turning to `O=C(O)CC[C@H](NC(=O)C(CS)Cc1ccccc1)C(=O)Nc1ccc(C(=O)O)cc1` (stereo partly drawn) [3(2), N-(3-mercapto-2RS-benzylpropionyl)-α-(4-carboxyanilino)-L-glutamic acid], at enkephalinase, the IC50 was 3.6 nM.
Same read-out and setting: to `O=C(O)CC[C@H](NC(=O)C(CS)Cc1ccccc1)C(=O)Nc1cccc2ccccc12` (stereo partly drawn) [2(7), N-(3-mercapto-2RS-benzylpropionyl)-L-glutamic acid α-(1-naphthyl)amide] belongs 350 nM; to `COc1ccc(CC(CS)C(=O)N[C@@H](CCC(=O)O)C(=O)Nc2ccccc2)cc1` (stereo partly drawn) [1(2), N-[3-mercapto-2RS-(4-methoxybenzyl)-propionyl]-α-anilino-L-glutamic acid], 51 nM.
`O=C(O)CC[C@H](NC(=O)C(CS)Cc1ccccc1)C(=O)Nc1ccccc1` (stereo partly drawn) [Example 1, N-(3-mercapto-2RS-benzylpropionyl)-α-anilino-L-glutamic acid] displayed a 50% inhibitory concentration (IC50) on enkephalinase of 21 nM. Moreover, in data set [1], the “Number of rats which did not show the biting-like response, 10 minutes after i.p.” value is listed as 4; the “Number of rats which did not show the biting-like response, 40 minutes after i.p.” value stood at 4; the “Number of rats which did not show the biting-like response, 70 minutes after i.p.” value is on record as 3; the “Number of rats which did not show the biting-like response, 100 minutes after i.p.” value came to 1.
Consider `O=C(CC[C@H](NC(=O)C(CS)Cc1ccccc1)C(=O)O)Nc1ccccc1` (stereo partly drawn) [Example 11, N-(3-mercapto-2RS-benzylpropionyl)-γ-anilino-L-glutamic acid α-sodium salt], for which half-maximal inhibition on enkephalinase (IC50) required 68 nM.
Consider `O=C(C[C@H](NC(=O)C(CS)Cc1ccccc1)C(=O)O)Nc1ccc(I)cc1` (stereo partly drawn) [12(5), N-(3-mercapto-2RS-benzylpropionyl)-β-(4-iodoanilino)-L-aspartic acid], for which inhibition against enkephalinase was half-maximal at 2.8 nM (IC50). Also, in data set [1], the “Number of rats which did not show the biting-like response, 10 minutes after i.p.” value is listed as 4; the “Number of rats which did not show the biting-like response, 40 minutes after i.p.” value is reported as 2; the “Number of rats which did not show the biting-like response, 70 minutes after i.p.” value amounted to 1; the “Number of rats which did not show the biting-like response, 100 minutes after i.p.” value is reported as 0.
At enkephalinase, `O=C(O)CC[C@H](NC(=O)C(CS)Cc1ccccc1)C(=O)Nc1ccc(Cl)cn1` (stereo partly drawn) [3(4), N-(3-mercapto-2RS-benzylpropionyl)-L-glutamic acid α-(5-chloropyridin-2-yl)amide] came in with an IC50 of 35 nM. In other words, the double-digit nanomolar range.
The LD50 is the dose expected to kill half of the subjects tested. Higher therefore signals a less toxic substance. As for `O=C(O)CC[C@H](NC(=O)[C@@H](CSC1OC(=O)c2ccccc21)Cc1ccccc1)C(=O)Nc1ccccc1` (stereo partly drawn) [Example 16, N-[3-(phthalid-3yl)thio-2S-benzylpropionyl]-α-anilino-L-glutamic acid], in data set [1], the “Number of rats which did not show the biting-like response, 30 minutes after p.o.” value turned out to be 3; the “Number of rats which did not show the biting-like response, 60 minutes after p.o.” value is 6; the “Number of rats which did not show the biting-like response, 90 minutes after p.o.” value is 2; the “Number of rats which did not show the biting-like response, 120 minutes after p.o.” value is given as 0. In addition, the LD50 in data set [2] lay within 500 to 1000 mg/kg.
Take `COC(=O)C[C@H](NC(=O)C(CS)Cc1ccccc1)C(=O)Nc1ccc2c(c1)C(c1ccccc1)=NCCN2C` (stereo partly drawn) [Example 4, N-(3-mercapto-2RS-benzylpropionyl)-L-aspartic acid α-(2,3-dihydro-1-methyl-5-phenyl-1H-1,4-benzodiazepin-7yl)amide β-methyl ester]: on enkephalinase, the IC50 was 150 nM.
The compound `Cc1ccc(CC(CS)C(=O)N[C@@H](CCC(=O)O)C(=O)Nc2ccccc2)cc1` (stereo partly drawn) [1(3), N-[3-mercapto-2RS-(4-methylbenzyl)-propionyl]-α-anilino-L-glutamic acid] showed an IC50 at enkephalinase of 71 nM. This IC50 is about 2.1-fold lower than that of the compound before.
